US20200247800A1, “SUBSTITUTED BICYCLIC HETEROCYCLIC COMPOUNDS AS NADPH OXIDASE INHIBITORS” (Glenmark Pharmaceuticals S.A., priority 2017, published 2020)
pIC50: −log10 of the molar value.

Target: T1, human NOX4 (Homo sapiens, UniProt Q9NPH5)
T1 construct: expressed in transfected cells; membrane fraction used
T1 sequence (Q9NPH5 1-578): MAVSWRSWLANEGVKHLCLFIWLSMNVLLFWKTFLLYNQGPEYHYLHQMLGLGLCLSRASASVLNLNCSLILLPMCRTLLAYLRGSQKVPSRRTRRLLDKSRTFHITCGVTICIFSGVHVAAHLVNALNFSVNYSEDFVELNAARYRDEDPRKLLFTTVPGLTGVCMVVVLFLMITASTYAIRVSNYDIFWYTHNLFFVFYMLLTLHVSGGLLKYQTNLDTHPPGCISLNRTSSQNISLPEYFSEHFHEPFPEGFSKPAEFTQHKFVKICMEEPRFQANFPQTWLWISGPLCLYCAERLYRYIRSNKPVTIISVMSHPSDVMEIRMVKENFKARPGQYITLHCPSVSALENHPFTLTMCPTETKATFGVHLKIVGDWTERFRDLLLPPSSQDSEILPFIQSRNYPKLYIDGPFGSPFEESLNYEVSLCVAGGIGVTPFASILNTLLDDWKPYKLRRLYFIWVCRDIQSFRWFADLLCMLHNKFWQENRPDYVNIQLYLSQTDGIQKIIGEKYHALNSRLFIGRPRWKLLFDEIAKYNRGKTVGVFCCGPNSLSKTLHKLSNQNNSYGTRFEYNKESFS
T1 sequence (P13498 1-195 partner): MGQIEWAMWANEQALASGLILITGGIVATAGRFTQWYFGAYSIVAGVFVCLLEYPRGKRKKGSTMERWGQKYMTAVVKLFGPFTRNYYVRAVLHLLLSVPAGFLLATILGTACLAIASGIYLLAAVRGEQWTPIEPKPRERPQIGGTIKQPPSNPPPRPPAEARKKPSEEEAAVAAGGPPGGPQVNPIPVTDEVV
Assay: Cell free membrane based in vitro NOX4 assay: H2O2 production by membranes expressing human NOX4, measured with Amplex Red
Type: biochemical
Settings: for inhibition at 1 µM: 1.0 μM compound, read-out: Percentage inhibition at 1.0 μM; for pIC50: class symbols; for inhibition at 10 µM: 10.0 μM compound, read-out: Percentage inhibition at 10.0 μM
How it was run: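 IC50 came from concentration-response curves fitted as % of the inhibitor-free maximum. H2O2 formation was monitored for 10 min via Amplex Red/HRP fluorescence (544/590 nm) after NADPH start. Membranes from a stable hNOX4/HEK line had 20 min exposure to inhibitor beforehand at pH 7.4.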

| SMILES | inhibition at 1 µM [%] | pIC50 | inhibition at 10 µM [%] |
| --- | --- | --- | --- |
| CCn1nc(C)c2c(=O)c(O)c(-c3ccc(OCC4CC4)cc3F)[nH]c21 [Example 121, 6-[4-(Cyclopropylmethoxy)-2-fluorophenyl]-1-ethyl-5-hydroxy-3-methyl-1,7-dihydro-4H-pyrazolo[3,4-b]pyridin-4-one] | 70.2 | < 6.82 | – |
| CCc1nn(CCN2CCC(F)(F)CC2)c2[nH]c(-c3ccccc3Cl)c(O)c(=O)c12 [Example 210, 6-(2-Chlorophenyl)-1-(2-(4,4-difluoropiperidin-1-yl)ethyl)-3-ethyl-5-hydroxy-1H-pyrazolo[3,4-b]pyridin-4(7H)-one] | 91 | < 6.82 | 86.3 |
| Cn1nc(C(F)(F)F)c2c(=O)c(O)c(-c3cc(CNC(=O)C(C)(C)C)ccc3F)[nH]c21 [Example 135, N-(4-Fluoro-3-(5-hydroxy-1-methyl-4-oxo-3-(trifluoromethyl)-4,7-dihydro-1H-pyrazolo[3,4-b]pyridin-6-yl)benzyl)pivalamide] | 71 | < 6.82 | 90.7 |
| Cn1nc2[nH]c(-c3ccccc3Cl)c(O)c(=O)c2c1-c1ccc(F)cc1 [Example 58, 6-(2-Chlorophenyl)-3-(4-fluorophenyl)-5-hydroxy-2-methyl-2,7-dihydro-4H-pyrazolo[3,4-b]pyridin-4-one] | 36.7 | – | 51.2 |
| COCCOc1ccc(-c2[nH]c3c(c(C(F)(F)F)nn3C)c(=O)c2O)c(F)c1 [Example 66, 6-(2-Fluoro-4-(2-methoxyethoxy)phenyl)-5-hydroxy-1-methyl-3-(trifluoromethyl)-1H-pyrazolo[3,4-b]pyridin-4(7H)-one] | 100 | < 6.82 | 100 |
| CCn1nc(C)c2c(=O)c(O)c(-c3c(F)cc(F)cc3F)[nH]c21 [Example 97, 1-Ethyl-5-hydroxy-3-methyl-6-(2,4,6-trifluorophenyl)-1H-pyrazolo[3,4-b]pyridin-4(7H)-one] | 76.7 | < 6.82 | 78.2 |
| CCc1nn(C)c2[nH]c(-c3ccc(OC)cc3F)c(O)c(=O)c12 [Example 72, 3-Ethyl-6-(2-fluoro-4-methoxyphenyl)-5-hydroxy-1-methyl-1H-pyrazolo[3,4-b]pyridin-4(7H)-one] | 82.2 | 6.82 to 7.00 | – |
| Cn1nc(C(F)(F)F)c2c(=O)c(O)c(-c3cc(Cl)ccc3Cl)[nH]c21 [Example 50, 6-(2,5-Dichlorophenyl)-5-hydroxy-1-methyl-3-(trifluoromethyl)-1,7-dihydro-4H-pyrazolo[3,4-b]pyridin-4-one] | 89.3 | 6.82 to 7.00 | 99.5 |
| Cc1nn(Cc2ccccc2)c2[nH]c(-c3c(F)cccc3F)c(O)c(=O)c12 [Example 76, 1-Benzyl-6-(2,6-difluorophenyl)-5-hydroxy-3-methyl-1H-pyrazolo[3,4-b]pyridin-4(7H)-one] | 95 | > 7.30 | 93.5 |
| Cc1nn(-c2ccc(F)cc2)c2[nH]c(-c3ccccc3Cl)c(O)c(=O)c12 [Example 33, 6-(2-Chlorophenyl)-1-(4-fluorophenyl)-5-hydroxy-3-methyl-1,7-dihydro-4H-pyrazolo[3,4-b]pyridin-4-one] | 100 | > 7.30 | 100 |
| CCn1nc(C)c2c(=O)c(O)c(-c3cc(F)ccc3F)[nH]c21 [Example 81, 6-(2,5-Difluorophenyl)-1-ethyl-5-hydroxy-3-methyl-1H-pyrazolo[3,4-b]pyridin-4(7H)-one] | 93.3 | < 6.82 | 81.5 |
| Cc1nn(CCN2C[C@@H](C)O[C@@H](C)C2)c2[nH]c(-c3ccccc3Cl)c(O)c(=O)c12 [Example 148, 6-(2-Chlorophenyl)-1-(2-((2S,6R)-2,6-dimethylmorpholino)ethyl)-5-hydroxy-3-methyl-1H-pyrazolo[3,4-b]pyridin-4(7H)-one] | 94.3 | < 6.82 | 85.3 |
| Cc1nn(C2CCOCC2)c2[nH]c(-c3cc(CNC(=O)C(C)(C)C)ccc3Cl)c(O)c(=O)c12 [Example 142, N-(4-Chloro-3-(5-hydroxy-3-methyl-4-oxo-1-(tetrahydro-2H-pyran-4-yl)-4,7-dihydro-1H-pyrazolo[3,4-b]pyridin-6-yl)benzyl)pivalamide] | 80.4 | < 6.82 | 69.9 |

The next lines start with the values.

| inhibition at 1 µM [%] | pIC50 | inhibition at 10 µM [%] | SMILES |
| --- | --- | --- | --- |
| 81.7 | < 6.82 | 89.2 | Cn1nc(CN2CCN(C3COC3)CC2)c2c(=O)c(O)c(-c3c(F)cccc3F)[nH]c21 [Example 219, 6-(2,6-Difluorophenyl)-5-hydroxy-1-methyl-3-((4-(oxetan-3-yl)piperazin-1-yl)methyl)-1H-pyrazolo[3,4-b]pyridin-4(7H)-one] |
| 66.7 | < 6.82 | 84.8 | CCn1nc(C(F)(F)F)c2c(=O)c(O)c(-c3c(F)cccc3F)[nH]c21 [Example 100, 6-(2,6-Difluorophenyl)-1-ethyl-5-hydroxy-3-(trifluoromethyl)-1H-pyrazolo[3,4-b]pyridin-4(7H)-one] |
| 100 | > 7.30 | 100 | Cc1nn(-c2ccc(F)cc2)c2[nH]c(-c3c(F)cccc3F)c(O)c(=O)c12 [Example 32, 6-(2,6-Difluorophenyl)-1-(4-fluorophenyl)-5-hydroxy-3-methyl-1,7-dihydro-4H-pyrazolo[3,4-b]pyridin-4-one] |
| 6.79 | – | 15.6 | Cn1nc(N2CCOCC2)c2c(=O)c(O)c(-c3c(F)cccc3F)[nH]c21 [Example 117, 6-(2,6-Difluorophenyl)-5-hydroxy-1-methyl-3-morpholino-1H-pyrazolo[3,4-b]pyridin-4(7H)-one] |
| 89.7 | 6.82 to 7.00 | 96.6 | CC(C)N1CCN(Cc2nn(C)c3[nH]c(-c4c(F)cccc4F)c(O)c(=O)c23)C[C@H]1C [Example 223, (R)-6-(2,6-Difluorophenyl)-5-hydroxy-3-((4-isopropyl-3-methylpiperazin-1-yl)methyl)-1-methyl-1H-pyrazolo[3,4-b]pyridin-4(7H)-one] |
| 71.6 | < 6.82 | – | CCc1nn(C)c2[nH]c(-c3ccc(F)cc3F)c(O)c(=O)c12 [Example 161, 6-(2,4-Difluorophenyl)-3-ethyl-5-hydroxy-1-methyl-1H-pyrazolo[3,4-b]pyridin-4(7H)-one] |
| 91.3 | 7.00 to 7.30 | 92.3 | Cn1nc(-c2ccc(F)cc2)c2c(=O)c(O)c(-c3c(F)cccc3F)[nH]c21 [Example 113, 6-(2,6-Difluorophenyl)-3-(4-fluorophenyl)-5-hydroxy-1-methyl-1H-pyrazolo[3,4-b]pyridin-4(7H)-one] |
| 94.9 | 7.00 to 7.30 | 93.5 | CCc1nn(CCN2CCOCC2=O)c2[nH]c(-c3c(F)cccc3F)c(O)c(=O)c12 [Example 168, 4-(2-(6-(2,6-Difluorophenyl)-3-ethyl-5-hydroxy-4-oxo-4,7-dihydro-1H-pyrazolo[3,4-b]pyridin-1-yl)ethyl)morpholin-3-one] |
| 69.3 | < 6.82 | 81.9 | Cc1nn(C2CC2)c2[nH]c(-c3c(F)cccc3Cl)c(O)c(=O)c12 [Example 124, 6-(2-Chloro-6-fluorophenyl)-1-cyclopropyl-5-hydroxy-3-methyl-1,7-dihydro-4H-pyrazolo[3,4-b]pyridin-4-one] |
| 100 | 7.00 to 7.30 | 100 | Cc1nn(CCN(C)C)c2[nH]c(-c3c(F)cccc3F)c(O)c(=O)c12 [Example 89, 6-(2,6-Difluorophenyl)-1-(2-(dimethylamino)ethyl)-5-hydroxy-3-methyl-1H-pyrazolo[3,4-b]pyridin-4(7H)-one] |
| 90.6 | 7.00 to 7.30 | 95.3 | CC(C)N1CCN(Cc2nn(C)c3[nH]c(-c4c(F)cccc4F)c(O)c(=O)c23)CC1 [Example 192, 6-(2,6-Difluorophenyl)-5-hydroxy-3-((4-isopropylpiperazin-1-yl)methyl)-1-methyl-1H-pyraazolo[3,4-b]pyridin-4(7H)-one] |
| 81.3 | < 6.82 | – | CCc1nn(CCCN2CCOCC2)c2[nH]c(-c3ccc(F)cc3F)c(O)c(=O)c12 [Example 176, 6-(2,4-Difluorophenyl)-3-ethyl-5-hydroxy-1-(3-morpholinopropyl)-1H-pyrazolo[3,4-b]pyridin-4(7H)-one] |
| 83.5 | 6.82 to 7.00 | 81.5 | Cc1nn(CCN2CCOCC2)c2[nH]c(-c3ccccc3Cl)c(O)c(=O)c12 [Example 2, 6-(2-Chlorophenyl)-5-hydroxy-3-methyl-1-(2-morpholinoethyl)-1H-pyrazolo[3,4-b]pyridin-4(7H)-one] |
